Paper PMC5161367, “Discovery of Novel Small Molecule Inhibitors of VEGF Expression in Tumor Cells Using a Cell-Based High Throughput Screening Platform” (PLoS ONE, 2016)

Tests used:
[1] = target: T1, phosphodiesterase 5 (PDE5) (Homo sapiens, UniProt O76074); assay: PDE5 in vitro enzyme assay (fluorescence polarization); format: biochemical; settings: tadalafil positive control
T1 construct: purchased CalBiochem 524715
Method: PDE5 activity was measured with a PDE5 assay kit (cat#: R8039, Molecular Devices) according to manufacturer’s instructions. PDE5 enzyme was purchased from CalBiochem (cat#: 524715). Tadalafil (Cialis® was used as a positive control. Assays were performed in 96-well plates in duplicate, the fluorescence polarization was determined on a ViewLux microplate reader (Perkin Elmer) using the instrument settings recommended by the manufacturer. (DOC) Click here for additional data file.
PDE5 activity was quantified usinga PDE5 assay kit (cat#: R8039, Molecular Devices) according to manufacturer’s instructions. PDE5 enzyme was purchased from CalBiochem (cat#: 524715). The positive control, tadalafil (Cialis®), was synthesized in house. Assays were performed in 96-well plates in duplicate and fluorescence polarization was determined on a ViewLux microplate reader (Perkin Elmer) using the instrument settings recommended by the manufacturer.

[2] = Body weight in the xenograft study; format: in vivo, mouse; settings: HT1080 xenograft study, 10 and 50 mg/kg
Method: (§1) Log phase growing tumor cells (5–10 x 10^6 cells/mouse, depending on the cell line) were implanted subcutaneously in athymic nude mice. When the average tumor size reached the indicated size, mice were randomly divided into groups and administered vehicle (5% DMSO/ 95% PEG-300) or test compounds by oral gavage. Tumor volumes were measured twice per week using digital calipers and body weights once per week. Tumor volume was determined according to the formula: L x (W)^2/2, where L is the longest dimension and W is the shortest dimension.
Body weight was measured at the indicated time for each mouse until the group average tumor size reached […] and the whole group were then took down. (DOC) Click here for additional data file.
Body weight was measured at the indicated time for each mouse until the group average tumor size reached […] and the whole group were then took down. Data in this graph represents the average body weight (g) ± SD, n = 10.

[3] = Microsome metabolism - murine; format: in vitro ADME, mouse
Method: (§2) Pharmacological characterization of PTC-510. Pharmacological assays were performed to characterize PTC-510, including metabolic stability in human, primate mouse and rat liver microsomes; absorption in Caco-2 cells; in vitro effect on hERG ion channel; pharmacokinetics; and acute toxicity in the rat.

Cyp1A2 = Cyp1A2 (Homo sapiens, UniProt P05177); assay: p450 inhibition Cyp1A2; format: in vitro ADME
[4] = Acute Toxicity Dose (ATD); format: in vivo
Method: as §2

[5] = Pharmacokinetics in the rat; format: in vivo; parameters: Dose normalized AUC in the rat: unit not given here
Method: as §2

TNFα = TNFα ELISA in CEM cells with IL-1 induction; format: cell-based; settings: Homo sapiens, CCRF-CEM; CEM cells (T lymphoblasts) with 1 μg/mL IL-1 induction, 48 hours; read-out: ELISA EC50, TNFa
Method: Cells were treated with vehicle control (0.5% DMSO) or compounds at the indicated concentration for 48 hours, and specific proteins in conditioned medium were quantified using commercially available ELISA kits (R&D Systems) according to the manufacturer’s recommendations. VEGF was quantified in HeLa cells under hypoxia (1% oxygen); Tumor necrosis factor alpha (TNFα) was quantified in CEM cells stimulated with 1 μg/mL interleukin-1 beta (Sigma); erythropoietin (EPO) was quantified in HepB3 cells under hypoxic conditions (1% oxygen); and granulocyte colony-stimulating factor (G-CSF), basic fibroblast growth factor (FGF-2) and insulin-like growth factor 1 (IGF-1) were quantified without induction in HT1080 cells, HeLa cells and HepG2 cells, respectively.
Several target proteins were chosen as selectivity counter-screens, including TNF-alpha, FGF-2, G-CSF, IGF-1, and EPO. Similar to that of VEGF, the expression levels of these proteins are post-transcriptionally regulated, either through a 5’-UTR IRES, 3’-UTR AU-rich elements (AREs), or both.

[6] = test system: A375 human melanoma cells; assay: Chick embryo tumor growth study; format: in vivo; settings: A375 on CAM, single intravenous injection 500 μg per embryo, excised 6 days after dose
Method: The chick embryo tumor growth assay was performed as described previously with some modifications. A375 human melanoma cells (5 x 10^6) log-phase growth in a total volume of 40 μL RPMI1640 medium were inoculated into the CAM of 10-day old chick embryos. After 24 h, the embryo received a single intravenous injection of 100 μL of compound (500 μg per embryo) or vehicle control (5% Cremaphor and 5% ethanol in PBS). The embryos were incubated for another 6 days, at which time the embryos were sacrificed. Tumors that formed at the primary site were excised, trimmed free of surrounding CAM tissue, and weighed.
To test the hypothesis that targeting VEGF post-transcriptionally can be a useful approach for the treatment of cancers, we initially evaluated the efficacy of the compounds in a chick embryo tumor growth model, known to be angiogenesis-dependent. Briefly, A375 human melanoma cells were seeded on the chorioallantoic membrane (CAM) of 10 day old chick embryos and, after 24 h, the embryo received a single intravenous injection of 100 μL of compound (500 μg per embryo) or vehicle control (5% Cremaphor and 5% ethanol in PBS). Tumors were grown for seven days, excised, and their wet weights were determined.
A375 human melanoma cells (5 x 10^6) were inoculated into the CAM of 10-days-old chick embryos. […]

mVEGF = assay: HT1080 xenograft pharmacodynamic model, intratumor mVEGF; format: in vivo, mouse; settings: 200 mg/kg, twice per day for 7 days, oral, mean +/- SD, n = 10
Method: as §1
(§3) At the end of experiments, the tumors were excised from mice and homogenized on ice using a Powergen homogenizer fitted with Omni-Tip disposable/reusable probes (both from Fisher Scientific) in Tris-HCl buffer containing a cocktail of proteinase inhibitors. Intra-tumor human VEGF levels, as well as levels of other growth factors or proteins, were subsequently measured using commercially available ELISA kits (R&D Systems). Protein concentrations of the homogenates were determined using the Bradford protein assay (Bio-Rad) and intratumor growth factor levels were normalized to the total protein concentration.
(§4) Among the VEGF UTR-selective compounds identified, PTC-858 is a potent hit with adequate pharmaceutical properties (data not shown). […]

hFGF-2 = assay: HT1080 xenograft pharmacodynamic model, intratumor hFGF-2; format: in vivo, mouse; settings: twice per day for 7 days
Method: as §1, §3, §4

hSurvivin = assay: HT1080 xenograft pharmacodynamic model, intratumor hSurvivin; format: in vivo, human; settings: 200 mg/kg, twice per day for 7 days, oral, mean +/- SD, n = 10
Method: as §1, §3, §4

Cyp1A2, sequence (P05177 whole entry): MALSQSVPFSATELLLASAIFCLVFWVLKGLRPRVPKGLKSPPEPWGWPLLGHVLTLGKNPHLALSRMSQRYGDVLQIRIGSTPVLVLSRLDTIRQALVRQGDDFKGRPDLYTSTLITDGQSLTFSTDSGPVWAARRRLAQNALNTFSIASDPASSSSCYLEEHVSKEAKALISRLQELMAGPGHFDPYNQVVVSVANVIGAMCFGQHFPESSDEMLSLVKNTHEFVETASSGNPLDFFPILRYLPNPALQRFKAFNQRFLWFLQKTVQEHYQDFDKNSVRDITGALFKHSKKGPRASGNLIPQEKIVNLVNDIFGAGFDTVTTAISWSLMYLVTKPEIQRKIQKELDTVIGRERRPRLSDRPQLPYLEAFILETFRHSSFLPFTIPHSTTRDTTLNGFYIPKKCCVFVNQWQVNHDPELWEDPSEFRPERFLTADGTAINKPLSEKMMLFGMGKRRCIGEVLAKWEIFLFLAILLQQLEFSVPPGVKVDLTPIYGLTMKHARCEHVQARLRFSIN

In the case of `COc1ccc(C2c3[nH]c4ccc(Br)cc4c3CC3C(=O)N(C4CCCCC4)C(=S)N32)cc1.O=C(O)C(F)(F)F` (stereo not shown) [PTC-510, 9-bromo-2-cyclohexyl-5-(4-methoxyphenyl)-3-thioxo-2,3,5,6,11,11a-hexahydro-1H-imidazo[1’,5’:1,6]pyrido[3,4-b]indol-1-one trifluoroacetate], the “inhibition of PDE5 activity” value [1] is reported as “did not inhibit PDE5 activity”, the “overt toxicity (body weight loss)” value [2] is reported as “No overt toxicity” and the “Microsome metabolism - murine, % loss @ 1 h” value [3] is reported as 0%. For the same compound, the IC50 (Cyp1A2) was > 5 µM, the “Acute Toxicity Dose (ATD) in mouse” value [4] was “No overt toxicity at 1000 mg/kg” and the “Dose normalized AUC in the rat” value [5] was 2.60. The bioavailability ([5]; in vivo, po, DMSO/PEG) was 50%.

With `Brc1ccc2[nH]c3c(c2c1)CCCC3n1cccc1` (stereo not shown) [PTC-858, 6-bromo-1-(1H-pyrrol-1-yl)-2,3,4,9-tetrahydro-1H-carbazole] the EC50 (TNFα) was > 30 µM, the “tumor size (wet weight) vs no-treatment or vehicle controls” value [6] was “significantly reduced tumor size” and the “intratumor mVEGF” value (mVEGF) was 12.6 ± 5.9 pg/mg total tumor proteins. The “changes in FGF-2 in vivo” value (hFGF-2; 200 mg/kg orally) was “not significant”, the “intratumor hFGF-2” value (hFGF-2; 200 mg/kg, oral, mean +/- SD, n = 10) was 3126.8 ± 1073.7 pg/mg total tumor proteins and the “intratumor hSurvivin” value (hSurvivin) was 1815.43 ± 321.9 pg/mg total tumor proteins.
